Measurements: ChEMBL document CHEMBL1130750, “Heteroatom-substitution as a strategy for increasing the potency of competitive NMDA antagonists” (Bioorg Med Chem Lett, 1998)

What was measured:
[1] = molecular target: Glutamate NMDA receptor; test: Compound was tested in vitro for inhibition of binding of [3H]-CGS- 19755 radioligand to NMDA receptor in rat brain membranes; assay type: cell membranes
[2] = molecular target: Glutamate NMDA receptor; test: Compound was tested in vitro for its ability to inhibit depolarizations induced by 40 uM NMDA in a cortical slice(NMDA antagonist); assay type: functional
[3] = tested on: Mus musculus; test: In vivo minimum effective dose required to block NMDA induced lethality in Mice following i.p. administration; assay type: functional; conditions: ip, read-out: MED
[4] = molecular target: Glutamate NMDA receptor; test: Compound was tested in vitro for its ability to inhibit depolarizations induced by 40 uM NMDA in a cortical slice (NMDA antagonist); assay type: functional
[5] = molecular target: Glutamate NMDA receptor; test: In vitro ability to inhibit depolarizations induced by 40 uM NMDA in a cortical slice (NMDA antagonist); assay type: functional
[6] = molecular target: T1, Glutamate NMDA receptor (Rattus norvegicus) (UniProt P35439+Q00959+Q00960+Q00961+Q62645+Q8VHN2+Q9R1M7); test: In vitro percent inhibition of depolarizations induced by 3.2 uM NMDA in a cortical slice ( NMDA antagonist); assay type: functional
[7] = molecular target: T1, Glutamate NMDA receptor (Rattus norvegicus); test: In vitro percent inhibition of depolarizations induced by 10 uM NMDA in a cortical slice (NMDA antagonist); assay type: functional

| SMILES | IC50 [1] | minimal effective dose [3] | further results |
| --- | --- | --- | --- |
| O=C(O)[C@H]1C[C@@H](CSc2nn[nH]n2)CCN1 | 1.3 µM |  |  |
| O=C(O)[C@H]1C[C@@H](CCc2nnn[nH]2)CCN1 | 2.3 µM | 20 mg/kg | IC50 [2]: 8.1 µM |
| O=C(O)[C@H]1C[C@@H](Sc2nn[nH]n2)CCN1 | 0.11 µM |  |  |
| O=C(O)[C@H]1C[C@@H](COCc2nn[nH]n2)CCN1 | 8.3 µM | 80 mg/kg | IC50 [4]: 34.5 µM |
| O=C(O)[C@H]1C[C@@H](CCCc2nnn[nH]2)CCN1 |  | 10 mg/kg | IC50 [5]: 12.4 µM |
| O=C(O)[C@H]1C[C@@H](OCc2nn[nH]n2)CCN1 | 0.28 µM | 2.5 mg/kg | IC50 [4]: 4.7 µM |
| O=C(O)[C@H]1C[C@H](Sc2nn[nH]n2)CCN1 | 0.075 µM |  | inhibition [6]: 20%; inhibition [7]: 75% |
| O=C(O)[C@H]1C[C@@H](Cc2nnn[nH]2)CCN1 | 0.017 µM | 5 mg/kg |  |
